# Test: Increase in solubility of Compound A in dichloromethane/methanol by addition of metal compound
# Assay type: physicochemical
# Conditions: solvent dichloromethane/methanol=7/3
# Excerpt: Increase in solubility of poorly water-soluble nonpeptidic physiologically active compound by addition of metal compound
# An amount of a solvent (dichloromethane/methanol=7/3) which can dissolve 0.1 g of 2-ethoxy-1-[[2′-(1H-tetrazol-5-yl)biphenyl-4-yl]methyl]benzimidazole-7-carboxylic acid (hereinafter, abbreviated as Compound A) is shown in Table 1.
smiles,measurement,setting,value
"CCOc1nc2cccc(C(=O)O)c2n1Cc1ccc(-c2ccccc2-c2nnn[nH]2)cc1 [Compound A, 2-ethoxy-1-[[2′-(1H-tetrazol-5-yl)biphenyl-4-yl]methyl]benzimidazole-7-carboxylic acid]",Amount of solvent which can dissolve 0.1 g of Compound A,magnesium acetate tetrahydrate 48.7 mg added,0.5 mL
same,Amount of solvent which can dissolve 0.1 g of Compound A,no metal compound added,3 mL
same,Amount of solvent which can dissolve 0.1 g of Compound A,zinc acetate dihydrate 49.8 mg added,0.5 mL
